“And” between values parts separate entries of the source, which are not always exact repeats. Equal values may be shown once.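 Exposure lasted 48 hours, with cells grown in 96-well plates and compounds tested at five concentrations. At the GI50, growth is halved. TGI is the concentration that stops growth completely.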
Experiments:
Assay in all cases: inhibition of tumour cell growth, NCI panel, 48 h
[1] = system: A549 NSCLC
[2] = system: HS 578T breast
[3] = system: OVCAR-5 ovarian
[4] = system: MDA-MB-231 breast
[5] = system: SR leukemia
[6] = system: NCI-H226 lung
[7] = system: COLO 205 colon
[8] = system: ACHN renal
[9] = system: T-47D breast
[10] = system: HCT-116 colon

Row | SMILES | TGI [1] [µM] | TGI [2] | TGI [3] | TGI [4] | TGI [5] [µM] | TGI [6] [µM] | TGI [7] [µM] | TGI [8] | TGI [9] [µM] | TGI [10] | GI50 [2] [µM] | GI50 [3] [µM] | GI50 [5] | GI50 [8] [µM]
1 | O=C1CC(c2cccc(Cl)c2)n2cccc21 (centres undefined) | > 100 | > 100 µM | > 100 µM | > 100 µM | > 100 | > 100 | > 100 | > 100 µM | > 100 | > 100 µM | – | – | – | –
2 | Cc1ccc2c3c1O[C@H]1c4nc5ccccc5cc4C[C@@]4(O)[C@@H](C2)N(CC2CC2)CC[C@]314 | 26.8 | 24.7 µM | 25.8 µM | 23.5 µM | 50.9 | 29.5 | 19.3 | 23.4 µM | 32.2 | 17.2 µM | – | – | – | –
3 | CN(C)c1ccc(/C=C2\N=C(c3ccccc3)N(c3nc4c(Cl)cc(Cl)cc4s3)C2=O)cc1 | > 100 | > 100 µM | > 100 µM | > 100 µM | > 100 | – | > 100 | > 100 µM | > 100 | > 100 µM | – | – | – | –
4 | CSc1n[n+](C)cc(N)c1N | > 100 | – | > 100 µM | > 100 µM | > 100 | > 100 | > 100 | > 100 µM | > 100 | > 100 µM | – | – | – | –
5 | COc1cccc(-c2cc(=O)c3cc(C)cnc3[nH]2)c1 | – | > 100 µM | > 100 µM | > 100 µM | 95.7 | 0.339 | 1.39 | > 100 µM | > 100 | > 40 µM | – | – | – | –
6 | CCn1c2c(c3c(C(=O)OC)c(O)ccc31)C(=O)c1ccccc1C2=O | 38.9 | 55.3 µM | 42.5 µM | 51.5 µM | 46.6 | 34 | 33 | 21.9 µM | 33 | 26.5 µM | – | – | – | –
7 | COC1C(O)=C2C(=O)OC(C)(O)/C=C/C=C\C=C/C=C/C(c3ccccc3)NC(=O)/C=C/C=C/C=C/C=C/C2(C)C1O (centres undefined) | 0.0253 | 0.192 µM and 0.246 µM | 0.566 µM and 0.224 µM | 0.105 µM and 0.0133 µM | – | 0.156 | 0.0166 | 0.0323 µM and 0.119 µM | 0.0707 | 0.0724 µM and 0.0739 µM | 0.0115 | 0.0649 | 0.0053 µM and 0.0269 µM | –
8 | O=C(CSc1nc2ccc(I)cc2c(=O)n1Cc1ccccc1)Nc1ccc(Br)cc1 | > 100 | 62.7 µM | > 100 µM | 89.7 µM | 27.4 | > 100 | > 100 | > 100 µM | > 100 | > 100 µM | – | – | – | –
9 | CCCCCCCCOCC1S(=O)(=O)OCCOS1(=O)=O | > 100 | > 100 µM | > 100 µM | > 100 µM | > 100 | > 100 | > 100 | > 100 µM | > 100 | > 100 µM | – | – | – | –
10 | CC[C@H]1C=CCC[C@@]2(C[C@@H]3CC[C@@H]4[C@H](C(=O)OCCCCCCCCCCCCCCCC(=O)N(CCCN)C[C@@H](O)CCN)[C@]5(CCC[C@@H](C)O5)NC(=[N+]34)N2)O1 | 1.25 | 2.88 µM | 4.39 µM | 5.97 µM | 0.397 | 3.66 | 1.65 | > 4.73 µM | 5.56 | 1.16 µM | – | – | – | –
11 | CCCCCc1c(CCCC)c(=O)[nH]c2cc(CNCC(OC)OC)ccc12 | 25.7 | 38.7 µM | 28 µM | 29.3 µM | 17.3 | 40.6 | 6.24 | 27.8 µM | 31.8 | 18.9 µM | – | – | – | –
12 | Cc1nn(-c2ccccc2)c(C)c1/C=N/NC(=O)c1sc(=S)n(-c2ccccc2)c1N | 34.8 | 8.46 µM | > 100 µM | 7.78 µM | > 100 | 79.1 | 3.55 | 4.32 µM | > 100 | 34.5 µM | – | – | – | –
13 | CN(C)Cc1cc(C(=O)O)cc(CN(C)C)c1O | > 100 | > 100 µM | > 100 µM | > 100 µM | > 100 | > 100 | > 100 | > 100 µM | > 100 | > 100 µM | – | – | – | –
14 | CC(C)n1c(=O)c2nn3c(=O)n(C(C)C)c(=O)c3nn2c1=O | > 100 | > 100 µM | > 100 µM | > 100 µM | > 100 | > 100 | > 100 | > 100 µM | > 100 | > 100 µM | – | – | – | –
15 | O=[N+]([O-])C(=C(NCc1ccccc1)NCc1ccccc1)C(Cl)=C(Cl)Cl | > 100 | > 100 µM | – | 81.2 µM | 57.8 | 90.7 | 36.1 | 55.9 µM | 92.9 | > 100 µM | – | – | – | –
16 | COC(=O)c1c(O)ccc2c1c1c(n2C)C(=O)c2ccccc2C1=O | > 100 | 42.2 µM | > 100 µM | 25.8 µM | > 100 | > 100 | > 100 | 35.8 µM | 13.1 | 32.1 µM | – | – | – | –
17 | O=C(O)C(Cc1cccs1)C(=O)O | > 100 | > 100 µM | > 100 µM | > 100 µM | > 100 | > 100 | > 100 | > 100 µM | > 100 | > 100 µM | – | – | – | –
18 | NCCCCCCNc1cc(-c2cccc(OC(F)(F)F)c2)nc2ccc(N3CCCC3)cc12 | – | – | 3.28 µM | – | 1.73 | – | – | 3.11 µM | – | – | – | 1.83 | 0.349 µM | 1.74
19 | O=C(c1ccco1)N(C(=S)N1CCN(c2ccccc2)CC1)c1ccccc1 | > 100 | – | > 100 µM | – | > 100 | > 100 | > 100 | > 100 µM | – | > 100 µM | – | – | – | –
20 | O=C1CC(O)c2c(Cl)sc(Cl)c21 (centres undefined) | 36.2 | – | 33 µM | > 61.3 µM | 20.7 | 36.6 | 14.6 | 26.2 µM | > 24.2 | 13.8 µM | – | – | – | –
21 | c1ccc2c(c1)SC1Sc3ccccc3[S+]21 (centres undefined) | > 100 | > 100 µM | > 100 µM | 80.3 µM | – | 96.9 | 30.1 | 20.4 µM | > 100 | > 57 µM | – | – | – | –
